{"source": "PubChem BioAssay AID1645871", "data": [{"settings": "pampa; pH 5.0; 30.0 min; 50.0 µM", "units": {"Papp": "×10⁻⁶ cm/s"}, "values": [{"smiles": "O=C(O)c1cccc(-c2noc(-c3ccccc3F)n2)c1", "Papp": 892}, {"smiles": "COc1ccc(NC(=O)c2ccc[nH]2)cc1S(=O)(=O)Nc1ccc(Br)cc1", "Papp": "> 1000"}, {"smiles": "COc1ncc(-c2n[nH]c3c2CC(=O)N(c2ccccc2)C3)cn1", "Papp": 42.5}, {"smiles": "O=C1Nc2ccc(-c3cccc(C(F)(F)F)c3)cc2C(=O)N2CCN(C(=O)COc3ccccc3)C[C@H]12", "Papp": 859}, {"smiles": "O=C(O)c1ccc(Nc2nc(-c3cc4ccccc4oc3=O)cs2)cc1O", "Papp": 74.2}, {"smiles": "Cc1nn2c(c1-c1ccccc1-c1ccccc1)N(CCC(C)C)CCC2", "Papp": 350}, {"smiles": "NC1CCN(C(=O)C2CCCN(c3nc(-c4ccccc4)nc4c3CCC4)C2)CC1", "note": "(centres undefined)", "Papp": 7.56}, {"smiles": "Oc1ccc(-c2nc(C3CC3)nc3c2CCN(CC2CCCCC2)CC3)cc1", "Papp": 190}, {"smiles": "O=C(Nc1ccc(Cl)cc1)C(NS(=O)(=O)c1cccs1)c1ccccc1", "note": "(centres undefined)", "Papp": 443}, {"smiles": "COc1cccc(Nc2ncc(-c3cccc(N(C)C)c3)c3c2OCC3)c1", "Papp": "> 1000"}, {"smiles": "COc1ccccc1-c1nc(NCc2ccc(-c3cccnc3)cc2)c2ccccc2n1", "Papp": 727}, {"smiles": "Cc1ccc(C(=O)Nc2ccc3oc(-c4cccnc4)nc3c2)cc1[N+](=O)[O-]", "Papp": 693}, {"smiles": "CCc1ccc(OC(C)C(=O)N2CCC(c3nc4ccccc4o3)CC2)cc1", "note": "(centres undefined)", "Papp": "> 1000"}, {"smiles": "COC[C@@H]1CN(C(=O)c2n[nH]c3ccccc23)C[C@H]1c1nc(C)no1", "Papp": 37.8}, {"smiles": "CN1CCN(CCCN2c3ccccc3Sc3ccc(S(=O)(=O)N(C)C)cc32)CC1", "Papp": 730}, {"smiles": "c1ccc(CNc2cc3c(cn2)CN(Cc2cccnc2)CCN3)cc1", "Papp": 15.8}, {"smiles": "Cc1ccc(Nc2nc(C)c(NC(=O)c3ccc(C)cc3)c(Nc3ccc(C)cc3)n2)cc1", "Papp": 6.76}, {"smiles": "CCOc1ccc(-c2nnc(SCC(=O)NCc3ccccc3Cl)o2)cc1", "Papp": 2}, {"smiles": "CN1CCC(N(Cc2cccs2)c2ccccc2)CC1", "Papp": 254}, {"smiles": "O=C(NCC1CCOCC1)C1CC(=O)N(c2n[nH]c3cc(Br)ccc23)C1", "note": "(centres undefined)", "Papp": 10.6}, {"smiles": "O=c1[nH]c(N2CCOCC2)nc2c1CCN(Cc1cc(Cl)ccc1F)CC2", "Papp": 46.3}, {"smiles": "CCc1nnc(NC(=O)c2nc(S(=O)(=O)Cc3ccc(C)cc3)ncc2Cl)s1", "Papp": 711}, {"smiles": "CC(=O)N1CCc2c(sc3c2c(=O)n(-c2ccccc2Cl)c(=O)n3Cc2cccc(C)c2)C1", "Papp": 687}, {"smiles": "COc1ccc(-n2nc(C3CCCN(C(=O)C4CC4)C3)[nH]c2=O)cc1", "note": "(centres undefined)", "Papp": 109}, {"smiles": "CC(C)Oc1ccc(C(=O)Nc2ccc3c(c2)CCCN3C(=O)c2cccs2)cc1", "Papp": 800}, {"smiles": "CCNC(=O)c1coc(COc2ccc3c(c2)C(c2ccc(F)cc2)N(C(=O)CC(C)C)CC3)n1", "note": "(centres undefined)", "Papp": "> 1000"}, {"smiles": "Cc1ccccc1C(=O)NC1CCN(c2ccc3nnc(C4CC4)n3n2)CC1", "Papp": 35}, {"smiles": "COc1ccccc1C(=O)NC1CCCc2c1[nH]c1c(Cl)cccc21", "note": "(centres undefined)", "Papp": 607}, {"smiles": "O=C(CCCCn1c(=O)[nH]c2ccsc2c1=O)N1CCN(c2cccc(Cl)c2)CC1", "Papp": 719}, {"smiles": "CC(C(O)c1ccc(O)cc1)N1CCC(Cc2ccccc2)CC1", "note": "(centres undefined)", "Papp": 40.6}, {"smiles": "O=C(C1CC(=O)N(c2n[nH]c3ccccc23)C1)N1CCC(c2noc3cc(F)ccc23)CC1", "note": "(centres undefined)", "Papp": 635}, {"smiles": "COc1ccc(-n2nc(C)c([C@@H]3C=C[C@@H](NCc4cccc(Cl)c4)C3)c2C)cc1", "Papp": 773}, {"smiles": "Cc1cnc(-c2ccccc2C(C)C)nc1NCc1ccc(-n2ccnn2)cc1", "Papp": 663}, {"smiles": "COc1ccccc1Nc1ccnc(N2CCN(C(=O)c3ccccc3Cl)CC2)n1", "Papp": 35.8}, {"smiles": "O=C(Nc1ccc(Oc2ccnc3[nH]ccc23)c(F)c1)c1cccn(-c2ccc(F)cc2)c1=O", "Papp": 9.36}, {"smiles": "Cc1ccc2oc3c(c(=O)c2c1)C(c1cccc(O)c1)N(CCCN1CCOCC1)C3=O", "note": "(centres undefined)", "Papp": 2.62}, {"smiles": "COc1cc2c(Nc3ccc(Br)cc3F)ncnc2cc1OCC1CCN(C)CC1", "Papp": 97.3}, {"smiles": "CCc1ccc(-n2nc(C)c3c2NC(=O)CSC3c2ccccc2C)cc1", "note": "(centres undefined)", "Papp": 707}, {"smiles": "COc1ccccc1-c1nnc2sc(-c3ccc(N(C)C)cc3)nn12", "Papp": "> 1000"}, {"smiles": "COc1ccc2[nH]c3c(c2c1)CCNC31CCN(S(=O)(=O)c2c(C)noc2C)CC1", "Papp": 161}, {"smiles": "O=C(CCCN1CCC(O)(c2ccc(Cl)cc2)CC1)c1ccc(F)cc1", "Papp": 396}, {"smiles": "CCOC(=O)c1cnc2ccc(-c3cncc(NS(=O)(=O)c4ccccc4)c3)cn12", "Papp": 546}, {"smiles": "Cc1ccc(-n2nc3c(=O)n(CCCC(=O)NC(C)c4ccccc4)nc(C)c3c2C)cc1", "note": "(centres undefined)", "Papp": 562}, {"smiles": "COc1ccc2[nH]cc(CCNC(=O)c3cnn(-c4ccc(C)cc4)c3C3CCN(C(=O)OC(C)(C)C)CC3)c2c1", "Papp": 689}, {"smiles": "COc1ccc(-n2nc3c(N4CCCC(C(=O)NCCc5ccc(C)cc5)C4)nnc(C)c3c2C)cc1", "note": "(centres undefined)", "Papp": 467}, {"smiles": "C#CCOc1ccc(-c2nnc(Nc3ccc(NC(C)=O)cc3)c3ccccc23)cc1", "Papp": 265}, {"smiles": "O=C(Nc1ccc2c(N3CCCCC3)ncnc2c1)c1cc(F)cc(F)c1", "Papp": 817}, {"smiles": "C[C@H]1CN(C(=O)c2nn(C)c3ccccc23)C[C@@H]1c1nc(-c2ccncc2)no1", "Papp": 667}, {"smiles": "O=C(Nc1ccc(OC(F)(F)Cl)cc1)c1cnc(N2CC[C@@H](O)C2)c(-c2ccn[nH]2)c1", "Papp": 16.8}, {"smiles": "COc1ccc(-n2nc(C3CCCN(CC4CCCCC4)C3)[nH]c2=O)cc1", "note": "(centres undefined)", "Papp": 322}, {"smiles": "C=Cc1ccc(Cn2c(C(=O)O)c(CNC3CCCCC3)c3ccc(OC)cc32)cc1", "Papp": 702}, {"smiles": "Cc1ccccc1C(=O)Nc1ccc2c(c1)CCCN2C(=O)c1cccs1", "Papp": 561}, {"smiles": "COc1ncc(-c2ccc3c(Nc4cc(Oc5cc(F)cc(F)c5)cc(C(=O)O)c4)c(S(=O)(=O)NC4CC4)cnc3c2)c(OC)n1", "Papp": 1.2}, {"smiles": "CC(C)c1ccccc1-c1nc(NCc2ccc(-c3cccnc3)cc2)c2ccccc2n1", "Papp": "> 1000"}, {"smiles": "NC1(c2ccccc2Cl)CCCCC1=O", "note": "(centres undefined)", "Papp": 11.1}, {"smiles": "FC(F)(F)c1ccccc1-c1nc(NCc2ccc(-c3cccnc3)cc2)c2ccccc2n1", "Papp": 712}, {"smiles": "CCC(CC)c1cc([C@H]2CN3CC[C@H]2C[C@@H]3CNC(=O)Cc2cccs2)nc(-c2ccncc2)n1", "Papp": 320}, {"smiles": "COc1ccc(-c2[nH]nc3ncc(-c4ccc(CO)cc4)nc23)cc1F", "Papp": 428}, {"smiles": "COc1ccc2[nH]c(C[C@@H]3C[C@@H](C(C)C)[C@H](CNCc4ccccc4O)C=C3C)nc2n1", "Papp": 739}, {"smiles": "CCOc1cc(-c2nccc3cc(OC)c(OC)cc23)cc(OCC)c1OCC", "Papp": "> 1000"}, {"smiles": "CC(=O)N[C@H]1CN(C2CCN(c3ccc(F)cc3C)CC2)C[C@@H]1C1CC1", "Papp": 144}, {"smiles": "CCS(=O)(=O)c1ncc(N(Cc2ccc(F)cc2)Cc2ccco2)c(C(=O)Nc2cc(C)ccc2C)n1", "Papp": 696}, {"smiles": "COc1ccc(CN2CCNc3cc(Nc4ccccc4)ncc3C2)cn1", "Papp": 2.38}, {"smiles": "COc1cc(C(=O)N2CCN(c3cc(Cl)ccc3Cl)CC2)cc(OC)c1OC", "Papp": "> 1000"}, {"smiles": "COC(=O)c1cc2occc2n1Cc1nc(-c2ccc(C)cc2)oc1C", "Papp": 257}, {"smiles": "CC1=C[C@@H](CNCc2cccnc2)[C@H](C(C)C)C[C@H]1Cc1nnc(-c2ccc([N+](=O)[O-])cc2)o1", "Papp": 984}, {"smiles": "COc1ccc(-n2nc(C3CCN(C(=O)c4ccccc4)CC3)[nH]c2=O)cc1", "Papp": 250}, {"smiles": "Oc1ccc(-c2nc(C3CC3)nc3c2CCN(Cc2ccc(F)cc2)CC3)cc1", "Papp": 421}, {"smiles": "CCOC(=O)c1ccc(N2C(=O)c3n[nH]c(-c4cccs4)c3C2c2ccc(OCC)cc2)cc1", "note": "(centres undefined)", "Papp": 448}, {"smiles": "COc1ccc(-n2c(C)c(C(C)=O)c3cc(OC(=O)COc4ccccc4)ccc32)cc1", "Papp": "> 1000"}, {"smiles": "CN(C)CC[C@@H](c1ccc(Cl)cc1)c1ccccn1", "Papp": 82.5}, {"smiles": "CC1=Nc2cc(C(=O)NCCc3ccccc3)ccc2Sc2c(C)ccc(C)c21", "Papp": 466}, {"smiles": "Cc1ccccc1S(=O)(=O)N1CCCC(CCC(=O)NCCN(C)C2CCCCC2)C1", "note": "(centres undefined)", "Papp": 32.8}, {"smiles": "O=C(NCCCNc1nc(Nc2cccc(NC(=O)N3CCCC3)c2)ncc1I)c1cccs1", "Papp": 234}, {"smiles": "CC(C)c1ccc(OCc2nc3c(n2Cc2ccccc2)C(=O)N(CC2CCOCC2)CCN3)cc1", "Papp": 643}, {"smiles": "Clc1cccc(COc2cncc(N3CCNCC3)n2)c1", "Papp": 742}, {"smiles": "CN(C)c1cccc(-c2cnc(Nc3cccnc3)c3c2CCO3)c1", "Papp": "> 1000"}, {"smiles": "CC(C)CNc1ccnc(NCc2csc(-c3ccccc3)n2)n1", "Papp": "> 1000"}, {"smiles": "CSc1nnc2c3ccccc3n(CCc3ccccc3)c2n1", "Papp": "> 1000"}, {"smiles": "COc1cccc(C(=O)Nc2ccc3oc(-c4ccc5ccccc5c4)nc3c2)c1", "Papp": 756}, {"smiles": "CCOc1ccc(C2c3c(oc4ccc(C)cc4c3=O)C(=O)N2CCCN(C)C)cc1", "note": "(centres undefined)", "Papp": 29.6}, {"smiles": "CCCCOc1ccc(C2c3c(oc4ccc(C)cc4c3=O)C(=O)N2CCCN(C)C)cc1OCC", "note": "(centres undefined)", "Papp": 273}, {"smiles": "Cc1cccc(S(=O)(=O)c2cn(Cc3ccccc3)c3cc(N4CCCC(C)C4)c(F)cc3c2=O)c1", "note": "(centres undefined)", "Papp": 832}, {"smiles": "Nc1ncc(S(=O)(=O)N2CCN(c3ccccc3)CC2)cn1", "Papp": 6.73}, {"smiles": "CN(C)CCOC1=Cc2ccccc2Sc2ccc(Cl)cc21", "Papp": 857}, {"smiles": "CCCCc1ccc(NC(=O)c2ccc3c(c2)N(S(C)(=O)=O)CC3)cc1", "Papp": 385}, {"smiles": "Cc1ccc2nc(-c3cc(NC(=O)c4ccc5c(c4)OCCO5)ccc3Cl)oc2c1", "Papp": 28.6}, {"smiles": "O=C(NCCc1cnc[nH]1)c1ccc(-c2ncc3cnc(-c4cccc(F)c4)cn23)cc1", "Papp": 5.09}, {"smiles": "CCc1cccc(NC(=O)CSc2nc3ccccc3nc2N2CCCCC2)c1", "Papp": 351}, {"smiles": "COc1ccc(CN2CCNc3cc(Nc4ccccc4)ncc3C2)cc1", "Papp": 119}, {"smiles": "Cc1ccc(C)c(CN2CCC(CNC(=O)Nc3ccc(Br)cc3F)CC2)c1", "Papp": 979}, {"smiles": "CN(C)c1ccc(CN2CCNc3cc(Nc4ccccc4)ncc3C2)cc1", "Papp": 107}, {"smiles": "Cc1ccc(S(=O)(=O)N2CCN(C(=O)c3cc4c(s3)CCC4)CC2)cc1", "Papp": "> 1000"}, {"smiles": "Cc1ccnc(NC(=S)N2CCN(c3ccc(N)cc3)CC2)c1", "Papp": 4.13}, {"smiles": "CN1CCN(C(=O)Cc2c[nH]c3ncc(-c4ccccc4Oc4ccccc4)cc23)CC1", "Papp": 578}, {"smiles": "CCCN1C(CC(C)C)=NS(=O)(=O)c2cc(NC(=O)c3ccco3)ccc21", "Papp": 239}, {"smiles": "Fc1ccccc1CNCc1ccc(-c2ccnc3[nH]ccc23)cc1", "Papp": 266}, {"smiles": "CCN1CCCC1CNC(=O)c1cc(S(=O)(=O)CC)c(N)cc1OC", "note": "(centres undefined)", "Papp": 6.63}, {"smiles": "Cc1ccccc1-c1nc(NCc2ccc(-c3cccnc3)cc2)c2ccccc2n1", "Papp": "> 1000"}, {"smiles": "CCc1ccccc1Nc1ncnc2c1cnn2-c1ccc(Cl)cc1", "Papp": 100}, {"smiles": "Cc1cc(CNC(=O)c2ccc3c(c2)n(CC2CC2)c(=O)n3C2CCCCC2)on1", "Papp": 870}, {"smiles": "c1cc(-c2cc(-c3ccncc3)c3cncn3c2)c2[nH]ncc2c1", "Papp": 20.3}, {"smiles": "Cn1ncnc1[C@H]1c2n[nH]c(=O)c3cc(F)cc(c23)N[C@@H]1c1ccc(F)cc1", "Papp": 46.2}, {"smiles": "COc1ccc(-n2nc(C3CCCN(C(=O)c4cccc(OC)c4)C3)[nH]c2=O)cc1", "note": "(centres undefined)", "Papp": 431}]}]}
